Values joined by “and” are separate entries in the source; they are usually repeats but may differ in a detail not shown here. Equal values may be shown once. Active and inactive are the calls of the source.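 Rule for the calls: active = IC50 at or below 100 µM in the confirmatory dose response; inactive = the rest.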

Chain of 26S proteasome non-ATPase regulatory subunit 14 (Homo sapiens) (O00487 whole entry, looked up): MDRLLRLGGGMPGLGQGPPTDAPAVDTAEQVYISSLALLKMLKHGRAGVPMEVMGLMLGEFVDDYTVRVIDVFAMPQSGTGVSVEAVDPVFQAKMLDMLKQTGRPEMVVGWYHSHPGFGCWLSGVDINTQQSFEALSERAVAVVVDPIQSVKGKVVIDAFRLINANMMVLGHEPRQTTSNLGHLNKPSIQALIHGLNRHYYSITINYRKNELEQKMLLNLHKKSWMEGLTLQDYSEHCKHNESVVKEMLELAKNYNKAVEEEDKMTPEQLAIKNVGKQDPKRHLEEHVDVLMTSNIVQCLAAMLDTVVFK

This experiment addresses 26S proteasome non-ATPase regulatory subunit 14 (Homo sapiens) (UniProt O00487). The experiment can be described thus: inhibition of proteasome Rpn11 deubiquitination – biochemical, fluorescence polarization, human 26S proteasome, uHTS hits, dose response (AID 686917). The following applies: purified human 26S proteasome, Ub4-pepOG fluorescence polarization.
`O=C(O)c1cnc2c(SSc3cccc4cc(C(=O)O)cnc34)cccc2c1`: the IC50 was 1.26 µM. Next, `O=C(Sc1cccc2cccnc12)c1ccccc1[N+](=O)[O-]`: 5.27 µM; `O=C(Sc1cccc2cccnc12)c1ccccc1`: 5.21 µM. For `O=C(Sc1cccc2cccnc12)c1cccc(C(F)(F)F)c1` the value was 8.43 µM. As to `COC(=O)[C@H](C)NC(=O)c1cnc2c(SSc3cccc4cc(C(=O)N[C@@H](C)C(=O)OC)cnc34)cccc2c1`, the IC50 is 5.01 µM. For `CCOc1ccccc1C(=O)Sc1cccc2cccnc12` the value was 3.7 µM and 14.4 µM. For the molecule `Cc1ccccc1C(=O)Sc1cccc2cccnc12`, the IC50 is 11 µM. Regarding `O=C(Sc1cccc2cccnc12)c1cccc(Cl)c1`, the IC50 was 1.18 µM. Turning to `COC(=O)C[C@H](NC(=O)c1cnc2c(SSc3cccc4cc(C(=O)N[C@@H](CC(=O)OC)C(=O)OC)cnc34)cccc2c1)C(=O)OC`, the IC50 was 3.43 µM. With `COc1ccc(C(=O)Sc2cccc3cccnc23)cc1OC`, the IC50 was 9.19 µM. With `COC(=O)[C@@H](NC(=O)c1cnc2c(SSc3cccc4cc(C(=O)N[C@H](C(=O)OC)C(C)C)cnc34)cccc2c1)C(C)C`, the IC50 was 4 µM. For `O=C(Sc1cccc2cccnc12)c1cccc2ccccc12`, the IC50 is 3.97 µM.

With `COC(=O)[C@@H]1CCCN1C(=O)c1cnc2c(SSc3cccc4cc(C(=O)N5CCC[C@H]5C(=O)OC)cnc34)cccc2c1`, the IC50 was 3.42 µM.

Take `O=C(Sc1cccc2cccnc12)c1ccc([N+](=O)[O-])cc1`: the IC50 is 10 µM. For `O=C(Sc1cccc2cccnc12)c1ccc(F)cc1F` the value was 9.67 µM. For `O=C(Sc1cccc2cccnc12)c1ccccc1Br` the value was 3.83 µM; for `COc1ccc(C(=O)Sc2cccc3cccnc23)cc1`, 4.37 µM; for `COC(=O)[C@H](CO)NC(=O)c1cnc2c(SSc3cccc4cc(C(=O)N[C@@H](CO)C(=O)OC)cnc34)cccc2c1`, 4.86 µM. Turning to `O=C(Sc1cccc2cccnc12)c1ccc(F)cc1`, the IC50 is 5.35 µM. Regarding `O=C(Sc1cccc2cccnc12)c1ccccc1I`, the IC50 is 2.18 µM. For the molecule `O=C(Sc1cccc2cccnc12)c1ccccc1Cl`, the concentration for half-maximal inhibition (IC50) is 5.81 µM. For `CC(C)Cc1ccc(C(=O)Sc2cccc3cccnc23)cc1` the value was 2.46 µM; for `N#Cc1ccc(C(=O)Sc2cccc3cccnc23)cc1`, > 99 µM (inactive). `CC[C@@H](C)[C@H](NC(=O)c1cnc2c(SSc3cccc4cc(C(=O)N[C@H](C(=O)OC)[C@@H](C)CC)cnc34)cccc2c1)C(=O)OC`: the IC50 is 1.77 µM. For the molecule `CCCc1ccc(C(=O)Sc2cccc3cccnc23)cc1`, the IC50 was 2.66 µM. `O=C(Sc1cccc2cccnc12)c1ccccc1OC(F)(F)F`: the IC50 was 4.12 µM. Take `O=C(Sc1cccc2cccnc12)c1ccc(F)c(F)c1`: the IC50 is 3.69 µM. Next, `COC(=O)[C@H](C)NC(=O)c1ccnc2c(SSc3cccc4c(C(=O)N[C@@H](C)C(=O)OC)ccnc34)cccc12`: 4.36 µM; `O=C(Sc1cccc2cccnc12)C1CCCCC1`: 0.663 µM; `N#Cc1cccc(C(=O)Sc2cccc3cccnc23)c1`: 15.8 µM. Regarding `O=C(O)[C@@H]1CCCN1C(=O)c1cnc2c(SSc3cccc4cc(C(=O)N5CCC[C@H]5C(=O)O)cnc34)cccc2c1`, the IC50 was 1.7 µM. Consider `COC(=O)[C@H](CC(C)C)NC(=O)c1cnc2c(SSc3cccc4cc(C(=O)N[C@@H](CC(C)C)C(=O)OC)cnc34)cccc2c1`, for which the IC50 was 5.32 µM. Turning to `COc1ccccc1C(=O)Sc1cccc2cccnc12`, the IC50 was 4.59 µM and 2.1 µM. With `O=C(Sc1cccc2cccnc12)c1ccccc1F`, the IC50 was > 99 µM (inactive). Take `O=C(Sc1cccc2cccnc12)c1ccc2c(c1)OCO2`: the IC50 is 14 µM. For the molecule `O=C(Sc1cccc2cccnc12)c1c(Cl)cccc1Cl`, the IC50 is 1.48 µM. Take `COc1cccc(C(=O)Sc2cccc3cccnc23)c1`: the IC50 is 1.49 µM. For `Cc1cccc(C(=O)Sc2cccc3cccnc23)c1` the value was 1.27 µM; for `CC[C@@H](C)[C@H](NC(=O)c1cnc2c(SSc3cccc4cc(C(=O)N[C@H](C(=O)O)[C@H](C)CC)cnc34)cccc2c1)C(=O)O`, 1.8 µM; for `COC(=O)c1cnc2c(SSc3cccc4cc(C(=O)OC)cnc34)cccc2c1`, 3.4 µM.

As for `Cc1ccc(C(=O)Sc2cccc3cccnc23)cc1`, the concentration for half-maximal inhibition (IC50) was 14.6 µM.

On to `COC(=O)[C@H](C)N(C)C(=O)c1cnc2c(SSc3cccc4cc(C(=O)N(C)[C@@H](C)C(=O)OC)cnc34)cccc2c1`, for which the IC50 is 4.31 µM. Next, `COc1ccc(C(=O)Sc2cccc3cccnc23)cc1F`: 3.54 µM; `CC(C)C[C@H](NC(=O)c1cnc2c(SSc3cccc4cc(C(=O)N[C@@H](CC(C)C)C(=O)O)cnc34)cccc2c1)C(=O)O`: 2.54 µM; `O=C(Sc1cccc2cccnc12)c1ccc(C(F)(F)F)cc1`: 3.73 µM.

On to `C[C@@H](C(=O)O)N(C)C(=O)c1cnc2c(SSc3cccc4cc(C(=O)N(C)[C@@H](C)C(=O)O)cnc34)cccc2c1`, for which the IC50 was 5.84 µM. With `CC(C)(C)OC(=O)CCNC(=O)c1cnc2c(SSc3cccc4cc(C(=O)NCCC(=O)OC(C)(C)C)cnc34)cccc2c1`, the IC50 is 4.9 µM.
